In the NIST ThermoML archive (doi:10.1021/je060271a):

Details: 283.15 K, Liquid, Vibrating tube method

CCCCCC(=O)OCC(COC(=O)CCCCC)(COC(=O)CCCCC)COC(=O)CCCCC [pentaerythritol tetrahexanoate]
Details	mass density [kg/m3]
5098.2 kPa	1007
5103.9 kPa	1007.1
5109.8 kPa	1007
5115.5 kPa	1007.1
5122.3 kPa	1007
5128.3 kPa	1007.1
5133.9 kPa	1007.2
5138.7 kPa	1007.1
5147 kPa	1007.2
5152.5 kPa	1007
5158.3 kPa	1007.2
5164.7 kPa	1007.2
5169.6 kPa	1007.1
5176.9 kPa	1007
5183.3 kPa	1007.2
5189 kPa	1007.1
5194.8 kPa	1007.2
5201.6 kPa	1007.1
5207.6 kPa	1007
5212.7 kPa	1007.2
5218.4 kPa	1007.2
5227 kPa	1007.3
5232.6 kPa	1007.1
5237.2 kPa	1007.1
5244.5 kPa	1007.2
5250.5 kPa	1007.1
5256.8 kPa	1007.2
5263.7 kPa	1007.2
5270.8 kPa	1007.3
5276.8 kPa	1007.2
5282.7 kPa	1007.3
5290.2 kPa	1007.4
5296 kPa	1007.1
5302.1 kPa	1007.3
5453.3 kPa	1007.3
5459.7 kPa	1007.3
5467.3 kPa	1007.4
5473.7 kPa	1007.4
5479.9 kPa	1007.2
5486.3 kPa	1007.3
5494.3 kPa	1007.3
5501 kPa	1007.3
5507.2 kPa	1007.4
5514 kPa	1007.4
5528.5 kPa	1007.4
5534.4 kPa	1007.4
5540.6 kPa	1007.4
5548.4 kPa	1007.4
5555 kPa	1007.4
5561.9 kPa	1007.3
5569.7 kPa	1007.4
5575.9 kPa	1007.4
5582.8 kPa	1007.5
5589.4 kPa	1007.4
5597.4 kPa	1007.3
5604.1 kPa	1007.5
5610.3 kPa	1007.4
5618.3 kPa	1007.4
5625 kPa	1007.4
5631.6 kPa	1007.4
5639.6 kPa	1007.4
5646.1 kPa	1007.5
5652.9 kPa	1007.4
5661 kPa	1007.5
5667.7 kPa	1007.5
5674.8 kPa	1007.3
5681.2 kPa	1007.4
5687.9 kPa	1007.4
5696.2 kPa	1007.5
5703 kPa	1007.4
5709.5 kPa	1007.5
5716.6 kPa	1007.5
5724.4 kPa	1007.5
